According to patent US8653132B2, “Phosphaplatins and their use in pharmaceutical compositions” (Ohio University, priority 2007, dated 2014):
Like-named read-outs stand apart in the source and are kept apart here.

How the values were obtained:
[1] = tested on: UMSCC10b (Cisplatin-sensitive) cells; assay: Cytotoxicity in head and neck cancer cells, cisplatin-sensitive; format: cell-based, human
Description: The UMSCC10b (Cisplatin-sensitive) and UMSCC10b/15s (Cisplatin-resistant) cell lines derived from human head and neck squamous cell cancer were lines were obtained from Dr. Stephen B. Howell of the University of California, Dan Diego. Cells were cultured in 1640 RPMI with 10% fetal bovine serum, 100 units/ml penicillin and 100 μg/m1 of streptomycin. Cells were seeded into 24-well plates with approximately 20,000 cells/500 μl of media in each well plate. Cells were exposed to dach-2 with variable concentrations ranging from 1.12 μM to maximum of 72 μM. Stock solutions of dach-2 complex were prepared and aliquots of these solutions were added to make those effective concentrations. Cells were then allowed to grow for 72 hours. Twelve different concentrations were used in this study. Each concentration had one control for a total of 12 controls.

[2] = tested on: CHO cell line; assay: Cytotoxic assay, CHO; format: cell-based
Description: In some embodiments, the complexes of the present invention are useful for treating various cancers. […] The complexes of the present invention are particularly desirable because they may have reduced toxicity in vivo.

[3] = tested on: A2780 cells; assay: Cellular accumulation of platinum by atomic absorption, A2780; format: cell-based, human; settings: for Cellular accumulation of platinum: 1 hr exposure
Description: Platinum content was quantitatively estimated on a Graphite Furnace Atomic Absorption Spectrometer (Perkin Elmer AA-600) from calibration curves established by using cisplatin or pyrodach-2 in water. Cells (5×10^6) were seeded in T75 cm^2 flasks. After 24 h, these cells were then treated with the different concentrations (0, 10, 20, 30 and 50 μM) of cisplatin and pyrodach-2. After 1 hr exposure with the platinum complexes, the drug-containing medium was removed and the cells were washed with ice-cold phosphate-buffered saline (PBS). The cells were then trypsinized and centrifuged into a pellet. Cell pellets were digested in concentrated HNO3 and H2O2 prior to analysis, according to the method of McGahan. Data reported in Table 4 were collected from three independent experiments each was carried out in duplicate. For the cisplatin accumulation, data were obtained from triplicate runs from a single sample at a given concentration.

[4] = tested on: BAK1; assay: Apoptotic gene array, real-time PCR: BAK1; format: cell-based; settings: preliminary
Description: (§1) Preliminary gene expression experiments involving complexes of the present invention as compared to cisplatin (data not shown) were carried out with an apoptotic array containing 84 genes that includes the BCL2 superfamily, both pro- and anti-apoptotic, caspases, the BIR-family, TNF receptor […] factors, p53 and its congeners, and fas associated members by real-time PCR. A closer look at the two sets of gene expressions clearly indicates a number of differences in the expression patterns. […] Specifically, fas was over-expressed by 6-fold compared to the control, and TNFRS genes such as TNFRSF-10B was overexpressed by 2-3 folds over controls. These latter receptor factors belong to the fas superfamily.

[5] = Stability in aqueous solution by 31P NMR; format: physicochemical
Description: Starting with the bottom spectrum in each panel, spectra were recorded at 24 hour time intervals.
At neutral pH, the isolated monomeric Pt(II) and Pl(IV) complexes of the present invention are stable. […] However, in the same time interval, slow deligation due to the release of the pyrophosphate ligand was evident at pH 4.2 by the appearance of the free pyrophosphate signal at −10.3 ppm. At the same time, an insoluble pyrophosphate-bridged dinuclear platinum(II) product was formed.

[6] = tested on: A2780/C30 cells; assay: Cellular accumulation of platinum by atomic absorption, A2780/C30; format: cell-based, human; settings: at its IC50 value
[7] = tested on: DNA of A2780 cells; assay: DNA-bound platinum in cells by atomic absorption; format: cell-based, human; settings: up to 50 micromolar, treated up to 24 hours
Description: For DNA-Pt measurements, 1.0×10^7 cells were seeded in T75 cm^2 flasks. After 24 hr, the platinum complexes were added at the different concentrations 0, 10, 20, 30 and 50 μM. Cells were treated with the platinum complexes for 24 hours. Following treatment, the medium was removed and cells were washed with ice-cold PBS. The cells were trypsinized and centrifuged into a pellet. DNA was extracted using a Wizard® SV DNA purification kit (Promega). The DNA was quantitatively estimated from the absorption at 260 nm using a NanoDrop UV-Vis instrument.

[8] = tested on: A2780/C30 cisplatin-resistant ovarian cell line; assay: Clonogenic assay, cisplatin/carboplatin-resistant C30; format: cell-based, human; settings: 1 hour drug treatment, 1 week colony formation
Description: A cisplatin-resistant Ovarian cell line (C30) (Hamaguchi, et al., 1993), obtained from Dr. Thomas Hamilton (Fox Chase Cancer Center, Philadelphia, Pa.), was treated with the monomeric platinum complexes of the present invention (shown in FIG. 2). This cell line is also cross resistant to carboplatin. Cells were cultured on monolayer using RPMI 1640 supplemented with 10% fetal bovine serum, 2 mM glutamine, 0.25 units/mL insulin and penicillin/streptomycin in a 37 degrees C. incubator continuously gassed with 5% CO2. Cells were subcultured using 0.025% trypsin in HBSS to maintain cells in exponential growth.
IC50 values were determined using a clonogenic assay. Briefly, 500 C30 cells from a single cell suspension were plated onto 60 mm Petri plates 24 hours before drug treatment to permit cell attachment. On the day of drug treatment, the medium was decanted and replaced with the drug and these treated cells were placed back into the 37 degrees C. incubator for 1 hour. Triplicate plates were set up for each drug concentration. After the one hour drug treatment, the drug containing medium was decanted and replaced with fresh medium. These plates were returned to the 37 degrees C. incubator for 1 week for colony formation. Colonies were fixed and stained using 2% crystal violet in absolute methanol. Colonies containing more than 50 cells were scored. The number of scored colonies from the triplicate plates was averaged and this number was divided by the number of cells plated to obtain a value for the fraction of cells forming colonies. These values for fraction of cells forming colonies were then corrected for plating efficiency by dividing them by the number of cells forming colonies in plates that were not treated with drug.

[9] = tested on: TNFRSF-10B; assay: Apoptotic gene array, real-time PCR: TNFRSF-10B; format: cell-based; settings: preliminary
Description: as §1

NC1CCCCC1N.O=P([O-])(O)OP(=O)([O-])O.[Pt+2] [dach-2, (Trans-1,2-cyclohexanediamine)(dihydrogenpyrophosphato)platinum(II)]
IC50 ([1]; 72 hours growth, estimated, read-out: IC50 for UMSCC10b (Cisplatin-sensitive)): < 1 µM
IC50 ([1]; FIG. 9 legend, read-out: IC50 cisplatin-sensitive head and neck cancer cells): < 1 µM
IC50 [2]: 35 ± 5 µM
Cellular accumulation of platinum ([3]; A2780, 10 μM): 1.00 ± 0.10 ng/10^6 cells
Cellular accumulation of platinum ([3]; A2780, 20 μM): 1.50 ± 0.30 ng/10^6 cells
Cellular accumulation of platinum ([3]; A2780, 30 μM): 3.00 ± 1.00 ng/10^6 cells
Cellular accumulation of platinum ([3]; A2780, 50 μM): 5.00 ± 0.30 ng/10^6 cells
accumulation in A2780 cells ([3]; at 10 μM concentration): 1.0 ng Pt/10^6 cells
BAK1 overexpression [4]: 2-3 folds
decomposition / deligation at pH 4.2 ([5]; pH 4.2, six days): considerable decomposition
decomposition at pH 8 ([5]; pH 8, up to six days): no decomposition
platinum accumulation in the resistant cell lines [6]: 1.4 ng Pt/10^6 cells
DNA-bound platinum [7]: No DNA-bound platinum was detected
IC50 [8]: 48 ± 5 µM
TNFRSF-10B overexpression over controls [9]: 2-3 folds
